Measurements taken from ChEMBL document CHEMBL3596122, “Isoform-Selective and Stereoselective Inhibition of Hypoxia Inducible Factor-2” (J Med Chem, 2015).
Active and inactive are the calls of the source. No cut-off for these calls is given here.

How the values were obtained:
[1] = target: T1, Endothelial PAS domain-containing protein 1 (Homo sapiens, UniProt Q99814)
Description: Binding affinity to wild type GST-tagged HIF-2alpha PAS-B (240 to 350) (unknown origin) expressed in Escherichia coli assessed as inhibition of interaction with His6-Gbeta1/FLAG fused ARNT PAS-B after 4 hrs by AlphaScreen assay

[2] = target: T1, Endothelial PAS domain-containing protein 1; remark: listed apart in the source
Description: Binding affinity to wild type His6-Gbeta1-fused HIF-2alpha PAS-B domain (240 to 350) (unknown origin) expressed in Escherichia coli by ITC analysis

[3] = target: T2, Endothelial PAS domain-containing protein 1 (Homo sapiens, UniProt Q99814, S304M)
T2 sequence (Q99814 whole entry S304M, the tested form may be a part): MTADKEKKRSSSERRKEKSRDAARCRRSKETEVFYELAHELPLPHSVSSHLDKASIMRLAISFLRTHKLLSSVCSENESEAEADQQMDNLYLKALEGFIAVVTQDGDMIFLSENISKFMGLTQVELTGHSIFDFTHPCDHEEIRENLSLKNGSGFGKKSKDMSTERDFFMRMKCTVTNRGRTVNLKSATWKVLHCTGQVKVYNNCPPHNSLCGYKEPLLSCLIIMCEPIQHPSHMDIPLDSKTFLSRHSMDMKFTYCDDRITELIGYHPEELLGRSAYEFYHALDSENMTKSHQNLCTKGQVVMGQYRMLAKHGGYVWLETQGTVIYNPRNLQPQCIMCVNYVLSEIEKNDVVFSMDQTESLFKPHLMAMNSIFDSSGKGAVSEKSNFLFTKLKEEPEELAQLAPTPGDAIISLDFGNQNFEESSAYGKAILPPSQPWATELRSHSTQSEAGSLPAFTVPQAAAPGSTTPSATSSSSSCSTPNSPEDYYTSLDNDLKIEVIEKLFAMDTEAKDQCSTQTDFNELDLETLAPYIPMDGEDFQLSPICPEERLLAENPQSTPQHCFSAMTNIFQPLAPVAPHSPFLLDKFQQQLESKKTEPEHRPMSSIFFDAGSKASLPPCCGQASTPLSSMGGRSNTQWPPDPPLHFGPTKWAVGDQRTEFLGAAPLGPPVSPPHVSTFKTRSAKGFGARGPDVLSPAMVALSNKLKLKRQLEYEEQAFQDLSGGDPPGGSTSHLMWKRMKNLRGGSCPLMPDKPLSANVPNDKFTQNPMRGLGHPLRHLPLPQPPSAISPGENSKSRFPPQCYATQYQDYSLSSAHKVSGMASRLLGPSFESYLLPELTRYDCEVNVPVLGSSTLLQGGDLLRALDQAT

[4] = target: T1, Endothelial PAS domain-containing protein 1; settings: Hep 3B2, 0.01 to 10 uM
Description: Inhibition of HIF-2alpha in human Hep3B cells assessed as downregulation of EPO mRNA expression at 0.01 to 10 uM by RT-PCR analysis

[5] = target: T2, Endothelial PAS domain-containing protein 1; assay: Binding affinity to His6-Gbeta1-fused HIF-2alpha PAS-B domain S304M mutant (240 to 350) (unknown origin) expressed in Escherichia coli by ITC analysis
[6] = target: T1, Endothelial PAS domain-containing protein 1; assay: Inhibition of HIF-2alpha in human Hep3B cells assessed as downregulation of EPO mRNA expression by RT-PCR analysis
[7] = target: Hypoxia-inducible factor 1-alpha (Homo sapiens, UniProt Q16665); assay: Binding affinity to wild type GST-fused HIF-1alpha PAS-B domain (238 to 349) (unknown origin) expressed in Escherichia coli assessed as compound-protein complex formation by ITC analysis
Sequence of Hypoxia-inducible factor 1-alpha (Q16665 whole entry, the tested form may be a part): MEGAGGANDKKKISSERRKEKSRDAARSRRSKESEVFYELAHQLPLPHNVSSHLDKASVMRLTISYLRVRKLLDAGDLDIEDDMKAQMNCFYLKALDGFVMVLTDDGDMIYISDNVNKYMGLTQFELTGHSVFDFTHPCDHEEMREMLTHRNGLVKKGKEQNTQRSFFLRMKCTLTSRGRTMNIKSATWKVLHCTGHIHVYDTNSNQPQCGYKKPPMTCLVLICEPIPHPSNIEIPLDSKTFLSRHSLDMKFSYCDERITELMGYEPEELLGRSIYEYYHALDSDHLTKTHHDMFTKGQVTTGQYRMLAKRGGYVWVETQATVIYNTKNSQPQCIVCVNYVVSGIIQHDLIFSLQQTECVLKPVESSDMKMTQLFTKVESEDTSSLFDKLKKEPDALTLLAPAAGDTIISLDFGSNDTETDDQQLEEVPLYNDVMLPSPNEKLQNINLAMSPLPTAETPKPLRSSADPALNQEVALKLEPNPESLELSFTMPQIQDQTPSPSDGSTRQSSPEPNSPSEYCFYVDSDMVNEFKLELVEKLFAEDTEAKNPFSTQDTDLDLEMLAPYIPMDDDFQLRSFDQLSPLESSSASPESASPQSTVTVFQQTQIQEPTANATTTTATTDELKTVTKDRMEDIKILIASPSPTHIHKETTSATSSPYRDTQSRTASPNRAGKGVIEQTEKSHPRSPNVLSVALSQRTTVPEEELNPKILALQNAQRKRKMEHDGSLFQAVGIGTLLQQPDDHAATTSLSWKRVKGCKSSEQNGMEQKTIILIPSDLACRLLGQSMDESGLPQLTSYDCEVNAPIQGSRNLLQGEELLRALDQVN

Hep 3B2 = assay: Effect on HIF-1-mediated PGK1 mRNA expression in human Hep3B cells at 0.01 to 10 uM by RT-PCR analysis; type: cell-based

T1 sequence (Q99814 whole entry, the tested form may be a part): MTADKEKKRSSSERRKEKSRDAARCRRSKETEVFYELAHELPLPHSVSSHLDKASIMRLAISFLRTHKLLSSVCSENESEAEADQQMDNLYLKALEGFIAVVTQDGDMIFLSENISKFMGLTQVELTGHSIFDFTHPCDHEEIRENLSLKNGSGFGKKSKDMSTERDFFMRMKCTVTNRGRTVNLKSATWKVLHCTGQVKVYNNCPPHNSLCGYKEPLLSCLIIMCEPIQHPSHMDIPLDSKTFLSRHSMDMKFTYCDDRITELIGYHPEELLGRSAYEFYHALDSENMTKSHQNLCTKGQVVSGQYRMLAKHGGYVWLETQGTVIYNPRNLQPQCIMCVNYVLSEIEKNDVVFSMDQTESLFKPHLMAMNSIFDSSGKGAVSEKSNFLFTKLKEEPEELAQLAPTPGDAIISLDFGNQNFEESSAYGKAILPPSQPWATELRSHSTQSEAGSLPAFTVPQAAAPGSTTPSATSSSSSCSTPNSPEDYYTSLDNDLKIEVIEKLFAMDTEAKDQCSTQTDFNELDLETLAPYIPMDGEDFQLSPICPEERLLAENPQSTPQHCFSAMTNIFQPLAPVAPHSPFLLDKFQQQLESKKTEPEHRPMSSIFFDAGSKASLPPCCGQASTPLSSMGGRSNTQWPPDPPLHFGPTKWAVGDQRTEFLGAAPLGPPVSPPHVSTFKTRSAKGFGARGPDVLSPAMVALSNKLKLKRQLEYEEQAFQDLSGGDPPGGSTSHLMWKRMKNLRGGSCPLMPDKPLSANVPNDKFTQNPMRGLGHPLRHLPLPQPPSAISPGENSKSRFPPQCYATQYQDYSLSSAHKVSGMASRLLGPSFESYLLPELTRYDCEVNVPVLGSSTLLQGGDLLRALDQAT

| Structure (SMILES) | IC50 [1] | Kd [2] | IC50 [3] | other results |
| --- | --- | --- | --- | --- |
| Clc1ccc(Br)cc1[C@@H]1C[C@H](c2cccc(Br)c2)Nc2nnnn21 | > 30000 nM | > 2000 nM | > 30000 nM |  |
| Fc1ccc(I)cc1C1CC(c2cccc(Br)c2)Nc2nnnn21 (racemic) |  | 159 nM |  |  |
| Brc1cccc([C@H]2C[C@@H](c3cccc(Br)c3)n3nnnc3N2)c1 | > 30000 nM | > 2000 nM | > 30000 nM |  |
| Brc1cccc([C@@H]2C[C@H](c3cccc(Br)c3)n3nnnc3N2)c1 | 112 nM | 63 nM | > 30000 nM |  |
| Brc1cccc([C@H]2C[C@@H](c3ccccc3Br)n3nnnc3N2)c1 | 28300 nM | > 2000 nM | > 30000 nM |  |
| Brc1cccc([C@@H]2C[C@H](c3ccccc3Br)n3nnnc3N2)c1 | 314 nM | 360 nM | 18900 nM |  |
| CC(C)CC1CC(c2cccc(Br)c2)Nc2nnnn21 (racemic) |  | 1170 nM |  |  |
| Clc1ccc(Br)cc1C1CC(c2cccc(Br)c2)Nc2nnnn21 (racemic) |  | 126 nM |  |  |
| Fc1cc(Br)cc([C@H]2C[C@@H](c3ccccc3)n3nnnc3N2)c1 | > 30000 nM | > 2000 nM | > 30000 nM |  |
| Fc1ccc(F)c(C2CC(c3cccc(Br)c3)Nc3nnnn32)c1F (racemic) |  | 393 nM |  |  |
| Brc1cccc(C2CC(c3cccc(Br)c3)n3nnnc3N2)c1 (racemic) |  | 70 nM |  |  |
| Clc1ccccc1[C@H]1C[C@@H](c2cccc(Br)c2)Nc2nnnn21 | 195 nM | 294 nM | 15900 nM |  |
| Fc1cc(Br)cc([C@@H]2C[C@H](c3ccccc3)n3nnnc3N2)c1 | 97 nM | 165 nM | 10100 nM |  |
| Fc1c(Cl)cccc1C1CC(c2cccc(Br)c2)Nc2nnnn21 (racemic) |  | 38 nM |  |  |
| Fc1ccc(Br)c(F)c1[C@H]1C[C@@H](c2cccc(Br)c2)Nc2nnnn21 | 32 nM | 34 nM | 3800 nM |  |
| Fc1cc(Br)cc([C@H]2C[C@@H](c3cccc(Br)c3)n3nnnc3N2)c1 | > 30000 nM | > 2000 nM | > 30000 nM | inhibition [4]: inactive |
| Fc1ccccc1C1CC(c2cccc(Br)c2)Nc2nnnn21 (racemic) |  | 327 nM |  |  |

| Structure (SMILES) | IC50 [1] | Kd [2] | IC50 [3] | other results |
| --- | --- | --- | --- | --- |
| Clc1ccccc1[C@@H]1C[C@H](c2cccc(Br)c2)Nc2nnnn21 | > 30000 nM | > 2000 nM | > 30000 nM |  |
| Fc1cc(Br)cc(C2CC(c3cccc(Br)c3)n3nnnc3N2)c1 (racemic) |  | 28 nM |  |  |
| Clc1cccc(C2CC(c3cccc(Br)c3)Nc3nnnn32)c1 (racemic) |  | 116 nM |  |  |
| Fc1c(Br)ccc(Br)c1C1CC(c2cccc(Br)c2)Nc2nnnn21 (racemic) |  | 240 nM |  |  |
| Fc1ccc(Cl)c(F)c1C1CC(c2cccc(Br)c2)Nc2nnnn21 (racemic) |  | 85 nM |  |  |
| Brc1cccc(C2CC(c3ccccc3Br)n3nnnc3N2)c1 (racemic) |  | 400 nM |  |  |
| Fc1ccc(Br)c(F)c1[C@@H]1C[C@H](c2cccc(Br)c2)Nc2nnnn21 | 22300 nM | > 2000 nM | > 30000 nM |  |
| Brc1cccc(C2CC(c3ccccc3I)n3nnnc3N2)c1 (racemic) |  | 766 nM |  |  |
| Fc1c(Br)ccc(Cl)c1C1CC(c2cccc(Br)c2)Nc2nnnn21 (racemic) |  | 85 nM |  |  |
| Fc1cc(Br)cc([C@@H]2C[C@H](c3cccc(Br)c3)n3nnnc3N2)c1 | 43 nM | 23 nM | 14500 nM | Kd [5]: 2000 nM; IC50 [6]: < 1000 nM; Kd [7]: > 5000 nM; Activity (Hep 3B2): inactive |
| Fc1ccc(Br)c(F)c1C1CC(c2cccc(Br)c2)Nc2nnnn21 (racemic) |  | 49 nM |  |  |
| Fc1ccc(Br)c(Cl)c1C1CC(c2cccc(Br)c2)Nc2nnnn21 (racemic) |  | 411 nM |  |  |
| Fc1c(Cl)ccc(Cl)c1C1CC(c2cccc(Br)c2)Nc2nnnn21 (racemic) |  | 194 nM |  |  |
| Clc1ccccc1C1CC(c2cccc(Br)c2)Nc2nnnn21 (racemic) |  | 361 nM |  |  |
| Clc1ccc(Br)cc1[C@H]1C[C@@H](c2cccc(Br)c2)Nc2nnnn21 | 87 nM | 125 nM | 23900 nM |  |
| Fc1cc(Br)cc(C2CC(c3ccccc3)n3nnnc3N2)c1 (racemic) |  | 216 nM |  |  |
